ChEMBL document CHEMBL4422697, “Structural Characterization of Cranberry Arabinoxyloglucan Oligosaccharides” (J Nat Prod, 2019)
Calls of active or inactive are those of the source. No cut-off for these calls is given here.

Tests used:
Leishmania donovani = assay: Growth inhibition of Leishmania donovani at 80 ug/ml relative to control; type: organism-based; conditions: in vivo
Cryptococcus neoformans = assay: Growth inhibition of Cryptococcus neoformans ATCC 90113 at 50 ug/ml relative to control; type: organism-based; conditions: in vivo
Plasmodium falciparum = assay: Growth inhibition of Plasmodium falciparum D6 at 15.9 ug/ml relative to control; type: organism-based; conditions: in vivo
Staphylococcus aureus [1] = assay: Growth inhibition of methicillin-[…] Staphylococcus aureus ATCC 33591 at 50 ug/ml relative to control; type: organism-based; conditions: in vivo
Escherichia coli [2] = assay: Growth inhibition of Escherichia coli ATCC 35218 at 50 ug/ml relative to control; type: organism-based; conditions: in vivo
MDA-MB-231 = assay: Cytotoxicity against human MDA-MB-231 cells assessed as reduction in cell viability at 10 to 100 uM after 48 hrs by sulforhodamine B assay; type: cell-based; conditions: mda-mb-231, 48 h
T47D = assay: Cytotoxicity against human T47D cells assessed as reduction in cell viability at 10 to 100 uM after 48 hrs by sulforhodamine B assay; type: cell-based
[3] = system: Mycobacterium intracellulare; assay: Growth inhibition of Mycobacterium intracellulare ATCC 23068 at 50 ug/ml relative to control; type: organism-based; conditions: in vivo
Nakaseomyces glabratus = assay: Growth inhibition of Candida glabrata ATCC 90030 at 50 ug/ml relative to control; type: organism-based; conditions: in vivo
Pseudomonas aeruginosa = assay: Growth inhibition of Pseudomonas aeruginosa ATCC 27853 at 50 ug/ml relative to control; type: organism-based; conditions: in vivo
Aspergillus fumigatus = assay: Growth inhibition of Aspergillus fumigatus ATCC 204305 at 50 ug/ml relative to control; type: organism-based; conditions: in vivo
Candida albicans = assay: Growth inhibition of Candida albicans ATCC 90028 at 50 ug/ml relative to control; type: organism-based; conditions: in vivo
Pichia kudriavzevii = assay: Growth inhibition of Candida krusei ATCC 6258 at 50 ug/ml relative to control; type: organism-based; conditions: in vivo
Staphylococcus aureus [4] = assay: Growth inhibition of Staphylococcus aureus ATCC 29213 at 50 ug/ml relative to control; type: organism-based; conditions: in vivo
Escherichia coli [5] = assay: Antiadhesive activity against P-fimbriated Escherichia coli ATCC 700928 assessed as inhibition of bacterial adhesion to human HTB4 cells incubated for 30 mins in presence of [3H]uridine prior to infection measured after 1 hr by scintillation counting method; type: functional, organism-based

Compound | growth inhibition (GI) (Leishmania donovani) [%] | growth inhibition (GI) (Cryptococcus neoformans) [%] | growth inhibition (GI) (Plasmodium falciparum) [%] | growth inhibition (GI) (Staphylococcus aureus [1]) [%] | growth inhibition (GI) (Escherichia coli [2]) [%] | Activity (MDA-MB-231) | Activity (T47D) | growth inhibition (GI) [3] [%] | growth inhibition (GI) (Nakaseomyces glabratus) [%] | growth inhibition (GI) (Pseudomonas aeruginosa) [%] | growth inhibition (GI) (Aspergillus fumigatus) [%] | growth inhibition (GI) (Candida albicans) [%] | growth inhibition (GI) (Pichia kudriavzevii) [%] | growth inhibition (GI) (Staphylococcus aureus [4]) [%] | inhibition (Escherichia coli [5])
OC[C@@H]1O[C@@H](O[C@H]2[C@@H](OC[C@H]3O[C@@H](O)[C@H](O)[C@@H](O)[C@@H]3O[C@@H]3O[C@H](CO)[C@@H](O[C@@H]4O[C@H](COC5OC[C@@H](O)[C@H](O)[C@H]5O[C@@H]5O[C@@H](CO)[C@H](O)[C@H]5O)[C@@H](O[C@@H]5O[C@H](CO)[C@@H](O)[C@H](O)[C@H]5O)[C@H](O)[C@H]4O)[C@H](O)[C@H]3O)OC[C@@H](O)[C@@H]2O)[C@H](O)[C@H]1O (single isomer, unassigned) | < 50 | < 50 | < 50 | < 50 | < 50 | Non-Toxic | Non-Toxic | < 50 | < 50 | < 50 | < 50 | < 50 | < 50 | < 50 | inactive
OC[C@@H]1O[C@@H](O[C@H]2[C@@H](OC[C@H]3O[C@@H](O)[C@H](O)[C@@H](O)[C@@H]3O[C@@H]3O[C@H](CO)[C@@H](O[C@@H]4O[C@H](COC5OC[C@@H](O)[C@H](O)[C@H]5O)[C@@H](O[C@@H]5O[C@H](CO)[C@@H](O)[C@H](O)[C@H]5O)[C@H](O)[C@H]4O)[C@H](O)[C@H]3O)OC[C@@H](O)[C@@H]2O)[C@H](O)[C@H]1O (single isomer, unassigned) | < 50 | < 50 | < 50 | < 50 | < 50 | Non-Toxic | Non-Toxic | < 50 | < 50 | < 50 | < 50 | < 50 | < 50 | < 50 | inactive
